According to patent publication US9820487B2, “Abscinazole” (NATIONAL UNIVERSITY CORPORATION SHIZUOKA UNIVERSITY, priority 2014, dated 2017):

Key:
[1] = target: T1, abscisic acid 8′-hydroxylase CYP707A3 (Arabidopsis thaliana, UniProt Q9FH76); test: Abscisic acid 8′-hydroxylase CYP707A3 inhibition test; assay type: biochemical; settings: CYP707A3 + NADPH-P450 reductase ATR1, substrate ABA, 30° C. 10 minutes; IC50 calculated from two concentrations
T1 sequence (Q9FH76 1-463): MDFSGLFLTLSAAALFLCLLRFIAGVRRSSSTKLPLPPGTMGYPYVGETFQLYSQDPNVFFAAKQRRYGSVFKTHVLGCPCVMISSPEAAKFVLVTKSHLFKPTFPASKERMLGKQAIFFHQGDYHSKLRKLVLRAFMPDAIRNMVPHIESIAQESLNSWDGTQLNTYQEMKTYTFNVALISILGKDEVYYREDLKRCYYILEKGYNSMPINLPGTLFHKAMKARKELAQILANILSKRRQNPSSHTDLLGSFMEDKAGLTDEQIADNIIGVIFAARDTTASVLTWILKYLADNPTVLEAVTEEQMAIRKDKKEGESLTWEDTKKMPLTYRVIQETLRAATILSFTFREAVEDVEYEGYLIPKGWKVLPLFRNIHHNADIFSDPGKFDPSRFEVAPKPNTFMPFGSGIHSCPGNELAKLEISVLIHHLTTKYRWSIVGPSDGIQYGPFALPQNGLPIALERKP
Method: In a 1.5 mL microtube, 10 μL of a solution of substrate 250 μM ABA in potassium/phosphate buffer (KPB), 5 μL of a solution of the sample in dimethylformamide, 435 μL of KPB and 40 μL of abscisic acid 8′-hydroxylase CYP707A3+NADPH-P450 reductase ATR1 were put and heated at 30° C. for 10 minutes. 10 μL of a solution of 5 mg/mL NADPH in KPB was added thereto thereby starting the enzyme reaction. The reaction was carried out at 30° C. for 10 minutes at a rotation speed of 1000 rpm, and 25 μL of an aqueous solution of 1 M sodium hydroxide was added thereto thereby terminating the reaction. The reaction solution was allowed to stand at 4° C. for 30 minutes and subsequently 50 μL of 1 M hydrochloric acid was added thereto to convert the enzyme metabolite to phaseic acid (PA). The enzyme reaction solution was subjected to an OASIS HLB cartridge (1 cc, 30 mg; washed with 1 mL of methanol (1% acetic acid) and equilibrated with 1 mL of water (1% acetic acid)) and washed with 1 mL of 10% methanol/water (1% acetic acid) thereby eluting phaseic acid with 1 mL of methanol (1% acetic acid). The eluate was concentrated under reduced pressure (toluene was added to azeotrope acetic acid), the obtained substance was dissolved in 50 μL of methanol. 20 μL of the solution was subjected to HPLC (column, YMC-Pack Hydrosphere C18 (6 mm inner diameter×150 mm length); flow rate 1 mL/min; detection 254 nm) analysis. The CYP707A3 inhibition rate of the samples was calculated in accordance with the following formula (3). Note that dimethylformamide was used for the control in place of the sample solution. Each sample was tested with two different concentrations to calculate the 50% inhibition concentration (IC50) based on the enzyme inhibition rates thereof The results are shown in Table 1.
Enzyme inhibition rate (%)={1-(PA peak area of each sample/PA peak area of control)}×100 . . . (3)

[2] = target: T2, ent-kaurene oxidase CYP701A6 (Oryza sativa subsp. japonica, UniProt Q5Z5R4); test: Ent-kaurene oxidase CYP701A6 inhibition test; assay type: biochemical; settings: CYP701A6 + NADPH-P450 reductase ATR2, substrate ent-kaurene, 30° C. 30 minutes; IC50 calculated from two concentrations
T2 sequence (Q5Z5R4 1-505): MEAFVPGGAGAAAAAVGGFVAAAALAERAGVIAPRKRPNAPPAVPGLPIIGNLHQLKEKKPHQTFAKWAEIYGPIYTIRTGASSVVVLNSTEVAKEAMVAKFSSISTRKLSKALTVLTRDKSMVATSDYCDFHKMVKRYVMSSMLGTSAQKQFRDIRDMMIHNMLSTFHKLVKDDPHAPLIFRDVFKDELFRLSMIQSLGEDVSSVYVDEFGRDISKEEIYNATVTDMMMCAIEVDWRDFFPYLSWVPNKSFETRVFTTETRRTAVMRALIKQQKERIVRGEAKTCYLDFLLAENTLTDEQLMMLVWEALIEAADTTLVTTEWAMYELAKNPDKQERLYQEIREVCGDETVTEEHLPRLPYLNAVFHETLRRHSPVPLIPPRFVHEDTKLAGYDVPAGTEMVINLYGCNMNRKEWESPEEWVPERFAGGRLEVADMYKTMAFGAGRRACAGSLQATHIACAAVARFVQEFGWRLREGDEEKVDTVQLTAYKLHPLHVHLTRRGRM
Method: To a 1.5 mL microtube, 8 μL of an aqueous solution of 500 μM ent-kaurene as a substrate in 45% cyclodextrin and 8μL of a solution of the sample in dimethylformamide were put. 10 μL of 2.32 μM ent-kaurene oxidase CYP701A6 and 10 μL of 4.6 unit/mL NADPH-P450 reductase ATR2, heated at 30° C. for 5 minutes in advance, were added thereto. 304 μL of ultra-pure water, 40 μL of 500 mM KPB and 20 μL of an aqueous solution of 20 mM NADPH, heated at 30° C. for 10 minutes in advance, were added thereto thereby starting the enzyme reaction. The reaction was carried out at 30° C. for 30 minutes at a rotation speed of 1000 rpm and 100 μL of 1 M hydrochloric acid was added thereto thereby terminating the reaction. 5 μL of 10 μM abietic acid as the internal standard was added thereto, and the solution was extracted with 400 μL of ethyl acetate. The resultant was dried over sodium sulfate and subsequently concentrated under reduced pressure. 50 μL of methanol and 5 μL of 2 M trimethyl silyldiazomethane were added thereto to methylate carboxylic acid and the resultant was thy-solidified using nitrogen. The solidified product was dissolved in 150 μL of hexane and 1 μL of the resultant solution was subjected to a GC-MS analysis to detect the enzyme metabolite ent-kaurene acid. The CYP701A6 inhibition rate of the samples was calculated in accordance with the following formula (4). Note that the peak area of ent-kaurene acid was calculated from the peak area of m/z 273 and that ent-kaurene acid was identified from the area ratio of m/z 257, 213. The peak area of abietic acid was calculated from the area of m/z 256, and abietic acid was identified from the area ratio of m/z 316. Note that dimethylformamide was used for the control in place of the sample solution. Each sample was tested with two different concentrations to act late the 50% inhibition concentration (IC50) based on the enzyme inhibition rates thereof.
Enzyme inhibition rate (%)={1-(Ent-kaurene acid peak area of each sample/Abietic acid peak area of each sample/(Ent-kaurene acid peak area of control/Abietic acid peak area of control }×100 . . . (4)

[3] = system: seeds of thale cress (Arabidopsis thaliana, Col-0); test: Thale cress seed germination inhibition test (2); assay type: in vivo; settings: 120 hours after seed plantation (FIG. 3)
Method: Seeds of thale cress (Arabidopsis thaliana, Col-0) were immersed in […] an aqueous solution of 70% ethanol for 30 minutes, subsequently in 500 μL of 100% ethanol for 1 minute, washed three times in 1 mL of distilled water, then immersed in distilled water and, in a dark place, verbalized at 4° C. for 3 days. A solution of the sample in methanol and a solution of ABA in methanol were put in a 1.5 mL microtube, and methanol was removed therefrom under reduced pressure. An aqueous solution of 0.5% agar (containing 1/2 MS medium inorganic salts) at 70° C. was added thereto, followed by stirring the resultant. The obtained solution was placed in a 96-well plate to provide the medium containing the sample. 20 to 30 vernalized seeds of thale cress were planted in each well and cultured at 22° C. under continuous light to monitor the number of seeds germinated over time. The germination rate was calculated in accordance with the following formula (1). Note that the medium prepared using methanol in the same manner as above was used as an untreated control and a germination rate of 100% was achieved 72 hours later from the seed plantation. Germination rates 72 hours later from the seed plantation are shown in FIG. 1 and initial growth conditions of thale cress 120 hours later are shown in FIG. 2.
Germination rate (%)=Number of seeds germinated/Number of seeds planted×100 . . . (1) […]

Compound	potency estimated from few doses [1] [µM]	potency estimated from few doses [2] [µM]	seed germination inhibition compared with (−) form of Comparative Example 1 [3]
COCCOCCOCCOCC#Cc1ccc(/C=C(\C(O)C(C)(C)C)n2cncn2)cc1 (single isomer, unassigned) [Example 3 (−) Form, (E)-1-(4-(2,5,8,11-tetraoxatetradec-13-yn-14-yl)phenyl)-4,4-dimethyl-2-(1H-1,2,4-triazol-1-yl)pent-1-en-3-ol]	1.5	8.6	–
CCCCOCCOCCOCC#Cc1ccc(/C=C(\C(O)C(C)(C)C)n2cncn2)cc1 (single isomer, unassigned) [Example 4 (−) Form]	0.2	0.77	–
CCCCOCCOCCOCc1cn(-c2ccc(/C=C(\C(O)C(C)(C)C)n3cncn3)cc2)nn1 (single isomer, unassigned) [Comparative Example 1 (−) Form, 1-(4-(4-((2-(2-butoxyethoxy)ethoxy)methyl)-1H-1,2,3-triazol-1-yl)phenyl)-4,4-dimethyl-2-(1H-1,2,4-triazol-1-yl)pent-1-en-3-ol, reference compound]	0.054	1.2	–
CCCCOCCOCCOCC#Cc1cccc(/C=C(\C(O)C(C)(C)C)n2cncn2)c1 (single isomer, unassigned) [Example 2 (+) Form, (E)-1-(3-(3-(2-(2-butoxyethoxy)ethoxy)prop-1-yn-1-yl)phenyl)-4,4-dimethyl-2-(1H-1,2,4-triazol-1-yl)pent-1-en-3-ol]	0.24	0.12	–
CCCCOCCOCCOCC#Cc1ccc(/C=C(\C(O)C(C)(C)C)n2cncn2)cc1 (single isomer, unassigned) [Example 4 (+) Form]	1	1.5	–
COCCOCCOCCOCC#Cc1cccc(/C=C(\C(O)C(C)(C)C)n2cncn2)c1 (single isomer, unassigned) [Example 1 (+) Form, (E)-1-(3-(2,5,8,11-tetraoxatetradec-13-yn-14-yl)phenyl)-4,4-dimethyl-2-(1H-1,2,4-triazol-1-yl)pent-1-en-3-ol]	1.2	1.6	–
CCCCOCCOCCOCC#Cc1cccc(/C=C(\C(O)C(C)(C)C)n2cncn2)c1 (single isomer, unassigned) [Example 2 (−) Form, (E)-1-(3-(3-(2-(2-butoxyethoxy)ethoxy)prop-1-yn-1-yl)phenyl)-4,4-dimethyl-2-(1H-1,2,4-triazol-1-yl)pent-1-en-3-ol]	0.012	0.062	can inhibit the seed germination even in lower concentrations
CCCCOCCOCCOCc1cn(-c2ccc(/C=C(\C(O)C(C)(C)C)n3cncn3)cc2)nn1 (single isomer, unassigned) [Comparative Example 1 (+) Form, 1-(4-(4-((2-(2-butoxyethoxy)ethoxy)methyl)-1H-1,2,3-triazol-1-yl)phenyl)-4,4-dimethyl-2-(1H-1,2,4-triazol-1-yl)pent-1-en-3-ol, reference compound]	1.1	1.3	–
COCCOCCOCCOCC#Cc1ccc(/C=C(\C(O)C(C)(C)C)n2cncn2)cc1 (single isomer, unassigned) [Example 3 (+) Form, (E)-1-(4-(2,5,8,11-tetraoxatetradec-13-yn-14-yl)phenyl)-4,4-dimethyl-2-(1H-1,2,4-triazol-1-yl)pent-1-en-3-ol]	7.7	17	–
